The values that follow come from US8921388B2, “Dihydroxypyrimidine carbonic acid derivatives and their use in the treatment, amelioration or prevention of a viral disease” (priority 2012, dated 2014).

The target of one experiment is T1, influenza A virus (IAV) PA-Nter fragment (amino acids 1-209) harbouring the influenza endonuclease activity (Influenza A virus, UniProt P31343).
T1 construct: PA-Nter fragment (amino acids 1-209); made in house
The experiment is described as follows: FRET endonuclease activity assay. The settings on record: @ 10 μM; compound-treated compared to untreated. It is filed as biochemical.
`COC(=O)c1nc(CC2CCCCC2)n(C)c(=O)c1O`: the “FRET % reduction of v0” value was 25% @ 10 μM.

With `O=C(NCc1ccc(Cl)cc1)c1nc(Cc2ccccc2Br)nc(O)c1O`, the “FRET % reduction of v0” value was determined as 37% @ 10 μM.

Consider `COC(=O)c1c(O)c(=O)nc(Cc2ccccc2Br)n1Cc1ccccc1`, for which the “FRET % reduction of v0” value stood at 23% @ 10 μM.

Staying with this experiment, now noted: calculated from initial reaction velocities (v0); 0.5 μM PA-Nter, 1.6 μM RNA substrate.
As to `O=C(O)c1nc(Cc2ccccc2-c2ccccc2)nc(O)c1O`, the half-maximal inhibitory concentration (IC50) (as a rule, the concentration that inhibits the measured activity by half) is 0.04 µM.

Consider `O=C(NCc1ccc(Cl)cc1)c1nc(Cc2ccccc2-c2ccccc2)nc(O)c1O`, for which the IC50 is 1.8 µM.

As to `CC(C)NC(=O)c1nc(Cc2cccc(Br)c2)nc(O)c1O`, the IC50 was 23 µM.

Regarding `COC(=O)c1nc(CC2(c3ccccc3)CCCC2)nc(O)c1O`, the IC50 was 0.41 µM.

As to `Cn1c(NS(=O)(=O)Cc2ccc(Cl)cc2)nc(C(=O)O)c(O)c1=O`, the concentration for half-maximal inhibition (IC50) is 0.54 µM.

`O=C(O)c1c(O)c(=O)nc(Cc2ccccc2)n1Cc1ccccc1`: the IC50 was 3.8 µM.

In the case of `O=C(O)c1nc(CC2CCCCC2)nc(O)c1O`, the half-inhibitory concentration (IC50) was 0.21 µM.

On to `CNC(=O)c1nc(NS(=O)(=O)Cc2ccc(Cl)cc2)n(C)c(=O)c1O`, for which the IC50 was 5.8 µM.

`Cc1ccccc1Cc1nc(O)c(O)c(C(=O)O)n1`: the concentration for half-maximal inhibition (IC50) was 0.27 µM.

Regarding `CCOC(=O)c1nc(CC2CCCCC2)nc(O)c1O`, the IC50 was 3.2 µM.

`CNC(=O)c1nc(Cc2ccccc2-c2ccccc2)n(C)c(=O)c1O`: the IC50 is 23 µM.

Turning to `O=C(NCc1ccc(F)cc1)c1nc(Cc2ccccc2Br)nc(O)c1O`, the half-maximal inhibitory concentration (IC50) was 27 µM.

For `O=C(O)c1c(O)c(=O)nc(Cc2ccccc2Br)n1Cc1ccccc1`, the 50% inhibitory concentration (IC50) is 5.7 µM.

On to `O=C(NCc1ccccc1)c1nc(CC2(c3ccccc3)CCCC2)nc(O)c1O`, for which the IC50 was 1.1 µM.

As for `CCCNC(=O)c1nc(Cc2ccccc2-c2ccccc2)nc(O)c1O`, the 50% inhibitory concentration (IC50) is 8.8 µM.

In the case of `COC(=O)c1nc(Cc2ccccc2Br)nc(O)c1OC(C)=O`, the IC50 is 7.9 µM.

On to `CNC(=O)c1nc(Cc2ccccc2Br)nc(O)c1O`, for which the half-maximal inhibitory concentration (IC50) is 5.7 µM.

On to `NC(=O)c1nc(CC2(c3ccccc3)CCCC2)nc(O)c1O`, for which the IC50 was 0.24 µM.

Take `O=C(O)c1nc(CC2(c3ccccc3)CCCC2)nc(O)c1O`: the IC50 is 0.08 µM.

Consider `Cc1ccccc1-c1ccccc1Cc1nc(O)c(O)c(C(=O)O)n1`, for which the half-maximal inhibitory concentration (IC50) is 0.24 µM.

On to `Cc1ccc(C)c(-c2ccccc2Cc2nc(O)c(O)c(C(=O)O)n2)c1`, for which the 50% inhibitory concentration (IC50) was 0.03 µM.

Take `O=C(O)c1nc(CC(c2ccccc2)c2ccccc2)nc(O)c1O`: the half-maximal inhibitory concentration (IC50) is 2.5 µM.

As for `CNC(=O)c1nc(NS(=O)(=O)Cc2ccccc2)n(C)c(=O)c1O`, the IC50 was 3 µM.

Consider `O=C(O)c1nc(Cc2cc(C(F)(F)F)ccc2Br)nc(O)c1O`, for which the IC50 was 0.16 µM.

On to `COC(=O)c1nc(Cc2ccc(F)cc2Br)nc(O)c1O`, for which the IC50 was 1.5 µM.

On to `O=C(c1nc(Cc2ccccc2-c2ccccc2)nc(O)c1O)N1CCCC1`, for which the IC50 is 1.1 µM.

As for `Cn1c(Cc2ccccc2-c2ccccc2)nc(C(=O)O)c(O)c1=O`, the IC50 is 1.3 µM.

As to `CNC(=O)c1nc(Cc2ccccc2-c2ccccc2)nc(O)c1O`, the IC50 was 0.66 µM.

As to `O=C(O)c1nc(Cc2ccc(F)cc2Br)nc(O)c1O`, the half-inhibitory concentration (IC50) is 0.18 µM.

For `CNC(=O)c1nc(NS(=O)(=O)Cc2cccc(C)c2)n(C)c(=O)c1O`, the IC50 was 6.8 µM.

On to `O=C(NCCc1ccccc1)c1nc(Cc2ccccc2-c2ccccc2)nc(O)c1O`, for which the IC50 is 3.8 µM.

Consider `CNC(=O)c1nc(CC2CCCCC2)nc(O)c1O`, for which the IC50 is 6.5 µM.

For the molecule `Cc1cccc(-c2ccccc2Cc2nc(O)c(O)c(C(=O)O)n2)c1`, the IC50 is 0.23 µM.

`Cn1c(CC2(c3ccccc3)CCCC2)nc(C(=O)O)c(O)c1=O`: the half-maximal inhibitory concentration (IC50) was 0.26 µM.

`CCOC(=O)c1nc(Cc2ccccc2-c2cc(C)ccc2C)nc(O)c1O`: the IC50 was 0.22 µM.

As to `O=C(NCc1ccccc1)c1nc(Cc2ccccc2-c2ccccc2)nc(O)c1O`, the IC50 was 16 µM.

Take `CNC(=O)c1nc(Cc2ccccc2-c2cc(C)ccc2C)nc(O)c1O`: the half-maximal inhibitory concentration (IC50) is 0.53 µM.

For `CNC(=O)c1nc(CC2(c3ccccc3)CCCC2)nc(O)c1O`, the half-maximal inhibitory concentration (IC50) was 0.14 µM.

For `COC(=O)c1nc(Cc2ccccc2-c2cc(C)ccc2C)nc(O)c1O`, the half-inhibitory concentration (IC50) was 0.15 µM.

For `Cn1c(Cc2ccccc2-c2ccccc2)nc(C(N)=O)c(O)c1=O`, the 50% inhibitory concentration (IC50) is 1.3 µM.

On to `COC(=O)c1c(O)c(=O)nc(Cc2ccccc2)n1Cc1ccccc1`, for which the half-inhibitory concentration (IC50) is 19 µM.

For `CCOC(=O)c1nc(Cc2cncn2Cc2ccccc2)nc(O)c1O`, the IC50 was 9.5 µM.

As for `CC(C)NC(=O)c1nc(Cc2ccccc2-c2ccccc2)n(C)c(=O)c1O`, the IC50 is 14 µM.

Regarding `CNC(=O)c1nc(NS(=O)(=O)Cc2ccc(C)cc2)n(C)c(=O)c1O`, the 50% inhibitory concentration (IC50) was 13 µM.

Consider `CNC(=O)c1nc(CC2(c3ccccc3)CCCC2)n(C)c(=O)c1O`, for which the IC50 is 0.41 µM.

Regarding `O=C(O)c1nc(Cc2ccccc2Br)nc(O)c1O`, the IC50 was 0.25 µM.

Consider `Cc1cccc(-c2ccccc2Cc2nc(C(N)=O)c(O)c(=O)[nH]2)c1`, for which the concentration for half-maximal inhibition (IC50) was 0.55 µM.

For the molecule `COC(=O)c1nc(Cc2ccccc2-c2ccccc2C)nc(O)c1O`, the IC50 is 0.12 µM.

For the molecule `O=C(NCc1ccc(F)cc1)c1nc(Cc2ccccc2-c2ccccc2)nc(O)c1O`, the IC50 is 1.7 µM.

Turning to `COC(=O)c1nc(Cc2ccccc2-c2cccc(C)c2)nc(O)c1O`, the IC50 was 0.35 µM.

`CC(C)NC(=O)c1nc(Cc2ccccc2-c2ccccc2)nc(O)c1O`: the 50% inhibitory concentration (IC50) is 8.2 µM.

With `Cc1ccc(C)c(-c2ccccc2Cc2nc(O)c(O)c(C(=O)OC(C)(C)C)n2)c1`, the IC50 is 1.1 µM.

As for `NC(=O)c1nc(Cc2ccc(F)cc2Br)nc(O)c1O`, the half-inhibitory concentration (IC50) was 2.7 µM.
